Assay results from paper PMC9436819 (JACC: Basic to Translational Science, 2022).

Tested on: healthy adults
Experiment: Echocardiography (core laboratory) pharmacodynamics, MAD cohorts
Type: in vivo, human
Experimental: The MAD cohorts also used a randomized, double-blind, placebo-controlled, sequential design.
For PD assessments of LVEF, echocardiograms for the SAD and MAD cohorts were interpreted by the echocardiography core laboratory and used for all data analysis and dose-level review decisions, and immediate local interpretation of the echocardiograms was performed for safety monitoring. […] Echocardiograms on day 3 (48 hours after dosing) were obtained only if the 24-hour LVEF had not returned to near or above baseline, as determined by the investigator. In the MAD cohorts, echocardiograms were obtained on day -1; predose on day 1; at 1.5 hours postdose on days 2, 4, and 9; and at 1.5, 24, and 72 hours postdose on day 14 (for the 5-mg and 10-mg cohorts) or on day 17 (for the 7.5-mg cohort). Echocardiograms were obtained 3 days after the last dose (on day 17 or 20) only if the participant’s prior LVEF was not near or above baseline, as determined by the investigator.
Using echocardiography instrumentation certified for clinical use, echocardiographic images were obtained from standard views based on American Society of Echocardiography recommendations for chamber quantification.[19] To obtain the LVEF, the endocardial borders of 3 different cardiac cycles were traced at both end diastole and end systole from the apical 4- and 2-chamber views and LV end-diastolic volume (LVEDV) and LV end-systolic volume (LVESV), calculated using the Simpson’s method of discs algorithm. Ejection fraction was calculated in the standard manner: LVEF = (LVEDV − LVESV)/LVEDV. The intraobserver variability (coefficient of variation) for LVEF was 8%.
All participants who received ≥1 dose of the study drug and had ≥1 predose and ≥1 postdose echocardiographic measurements were included in the PD analysis set. […] Descriptive statistics of the echocardiographic parameters were generated using SAS, version 9.3 or higher. Dose-response analysis was performed using analysis of covariance to identify the least-squares mean difference (aficamten minus placebo), as described in the Supplemental Appendix. Analyses of concentration “bin” and exposure-response were also performed using analysis of covariance, as described in the Supplemental Appendix. SAS PROC MIXED was used for all comparative analyses.
Statistical A nalysis of P harmacodynamic (PD) P aram eters
To analyze the impact of drug dose on echocardiographic parameters in the SAD and MAD
cohorts, an inferential analysis was conducted on t he PD analysis set using linear mixed models
for rep eated -measur es an alysis of covarian ce ( AN COVA). The A NCOVA used baseline valu e as
a covariate, included treatment, time-point, and time-point-by- treatment interaction as fixed
effects, and ch ange f rom baseline as the d ependent variable. Th e unstructur ed varian ce-
covarian ce structu re w as used, and the model acco unted for the time- point r epeated m easur es.
The ANCOVA analysis was conducted separately for each study part and f or each PD p aram eter .
The least-squares means, the difference in least squares means (active minus placebo), and the
associated 2-sided 95% CIs were presented for each comparison.
Concentration bin analysis
An additional inferential analysis was performed i n the SAD and MAD cohorts , to evaluate the
analysis set. A concentrat ion bin ANCOVA was conducted using linear mi xed models for
repeat ed-measures an aly ses with concentr ation bin group as a fix ed ef fect, baseline PD
parameters as a covari ate, change f rom baseline as the dependent v ariable, and a random
intercept to adjust for the repeat ed measures. The unstructured variance-co variance structur e was
used.Plasma concentr ations of aficamten wer e paired with coincident PD parameters. The
ANCOVA compared the change in PD parameters between each bin versus the pooled placebo
group. The least-squ ares means, the differen ce in l east squares m eans (bin group minus placebo), […]

SMILES: CCc1nc(-c2ccc3c(c2)CC[C@H]3NC(=O)c2cnn(C)c2)no1 [Aficamten]
- Participants with absolute reduction in LVEF of ≥5% from baseline (MAD 7.5 mg once daily, 1 of 6): 17%
- Participants with absolute reduction in LVEF of ≥10% from baseline (MAD 10 mg once daily): 33%
- Participants with reduction in LVEF ≥10% (MAD 10 mg once daily): 2 participants
- Participants who met the stopping criteria based on echocardiography results (MAD 10 mg once daily for 14 days): 2 participants
- Placebo-corrected reduction in LVEF (least-squares mean difference) (MAD 10 mg once daily for 14 days, […] postdose on day 14, P = 0.21): 3.2%
- Participants with absolute reduction in LVEF of ≥5% from baseline (MAD 10 mg once daily, 2 of 6): 33%
- Largest mean reduction in LVEF from baseline (MAD 10 mg, […] postdose on day 14): 5.0%
- Suppression of LVEF in most participants (MAD cohorts, plasma concentrations of ≤180 ng/mL): minimal suppression of LVEF
- Relationship of LVEF to plasma concentration (MAD cohorts, bin concentration analysis or linear regression analysis): did not reach statistical significance
- Reduction in LVEF to <50% (any of the MAD cohorts, per core laboratory assessment): not observed
